Assay results reported in ChEMBL document CHEMBL2046407, “Synthesis and in vitro antitubercular activity of 4-aryl/alkylsulfonylmethylcoumarins as inhibitors of Mycobacterium tuberculosis” (2012).
≈ marks a conversion by molar mass, not a printed value.

tested on: Mycobacterium tuberculosis; experiment: Antimycobacterial activity against Mycobacterium tuberculosis H37Rv by agar diffusion method; type: functional

Compound | MIC
Cc1ccc(S(=O)(=O)Cc2cc(=O)oc3ccccc23)cc1 | 12.5 µg/mL (≈ 39.8 µM)
O=c1cc(CS(=O)(=O)C2CCCCC2)c2ccccc2o1 | 6.25 µg/mL (≈ 20.4 µM)
O=c1cc(CS(=O)(=O)c2ccccc2)c2ccccc2o1 | 6.25 µg/mL (≈ 20.8 µM)
O=c1cc(CS(=O)(=O)c2ccc(Cl)cc2)c2ccccc2o1 | 12.5 µg/mL (≈ 37.3 µM)
COc1ccc2c(CS(=O)(=O)c3ccc(Cl)cc3)cc(=O)oc2c1OC | 1.56 µg/mL (≈ 3.95 µM)
COc1ccc2c(CS(=O)(=O)C3CCCCC3)cc(=O)oc2c1OC | 12.5 µg/mL (≈ 34.1 µM)
COc1ccc2c(CS(=O)(=O)c3ccc(C)cc3)cc(=O)oc2c1 | 12.5 µg/mL (≈ 36.3 µM)
O=c1cc(CS(=O)(=O)c2nc3ccccc3[nH]2)c2ccccc2o1 | 1.61 µg/mL (≈ 4.73 µM)
CC[C@@H](CO)NCCN[C@@H](CC)CO [ETHAMBUTOL] | 1.56 µg/mL (≈ 7.64 µM)
COc1ccc2c(CS(=O)(=O)c3nc4ccccc4[nH]3)cc(=O)oc2c1OC | 6.25 µg/mL (≈ 15.6 µM)
COc1ccc2c(CS(=O)(=O)c3ccccc3)cc(=O)oc2c1 | 12.5 µg/mL (≈ 37.8 µM)
NC(=O)c1cnccn1 [PYRAZINAMIDE] | 6.25 µg/mL (≈ 50.8 µM)
COc1ccc2c(CS(=O)(=O)c3nc4ccccc4o3)cc(=O)oc2c1 | 6.25 µg/mL (≈ 16.8 µM)
COc1ccc2c(CS(=O)(=O)c3nc4ccccc4o3)cc(=O)oc2c1OC | 0.78 µg/mL (≈ 1.94 µM)
COc1ccc2c(CS(=O)(=O)c3ccc(Cl)cc3)cc(=O)oc2c1 | 6.25 µg/mL (≈ 17.1 µM)
COc1ccc2c(CS(=O)(=O)C3CCCCC3)cc(=O)oc2c1 | 12.5 µg/mL (≈ 37.2 µM)
COc1ccc2c(CS(=O)(=O)c3ccc(C)cc3)cc(=O)oc2c1OC | 3.13 µg/mL (≈ 8.36 µM)
O=c1cc(CS(=O)(=O)c2nc3ccccc3o2)c2ccccc2o1 | 7.5 µg/mL (≈ 22 µM)
COc1ccc2c(CS(=O)(=O)c3ccccc3)cc(=O)oc2c1OC | 6.25 µg/mL (≈ 17.3 µM)
COc1ccc2c(CS(=O)(=O)c3nc4ccccc4[nH]3)cc(=O)oc2c1 | 6.25 µg/mL (≈ 16.9 µM)
